Data from patent publication US20240246967A1, “AXL COMPOUNDS” (ARCUS BIOSCIENCES, INC., priority 2021, published 2024).

How the values were obtained:
Axl = target: T1, Axl (Homo sapiens, UniProt P30530); test: HTRF KinEASE-TK biochemical potency assay, AXL; parameters: purchased Invitrogen; settings: 5 nM AXL, 700 μM ATP, 800 nM TK Substrate-biotin
T1 sequence (P30530 26-894): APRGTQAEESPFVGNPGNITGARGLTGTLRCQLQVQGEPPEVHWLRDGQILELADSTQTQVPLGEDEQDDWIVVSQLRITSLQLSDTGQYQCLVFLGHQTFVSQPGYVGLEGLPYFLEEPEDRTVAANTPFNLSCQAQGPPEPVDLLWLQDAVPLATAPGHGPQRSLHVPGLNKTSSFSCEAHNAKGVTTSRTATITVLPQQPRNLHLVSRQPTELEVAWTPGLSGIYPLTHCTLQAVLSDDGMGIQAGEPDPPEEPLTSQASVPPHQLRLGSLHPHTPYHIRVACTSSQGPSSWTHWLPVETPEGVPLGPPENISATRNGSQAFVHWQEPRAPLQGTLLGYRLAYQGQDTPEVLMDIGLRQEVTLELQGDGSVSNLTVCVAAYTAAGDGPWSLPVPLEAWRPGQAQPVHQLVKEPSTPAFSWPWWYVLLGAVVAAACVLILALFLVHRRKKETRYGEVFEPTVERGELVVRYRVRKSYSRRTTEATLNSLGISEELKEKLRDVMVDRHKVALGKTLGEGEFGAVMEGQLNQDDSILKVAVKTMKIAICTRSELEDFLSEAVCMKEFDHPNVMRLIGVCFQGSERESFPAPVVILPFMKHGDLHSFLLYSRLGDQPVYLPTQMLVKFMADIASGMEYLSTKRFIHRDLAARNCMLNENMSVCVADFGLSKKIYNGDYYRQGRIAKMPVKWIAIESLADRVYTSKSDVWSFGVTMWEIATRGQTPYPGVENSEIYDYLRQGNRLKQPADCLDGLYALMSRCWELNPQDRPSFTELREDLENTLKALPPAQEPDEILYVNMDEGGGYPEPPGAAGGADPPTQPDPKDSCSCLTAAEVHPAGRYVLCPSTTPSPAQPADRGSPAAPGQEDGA
Outline: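 Enzyme (final 5 nM AXL; 1 nM TYRO3 or MER) plus compound, 1 h RT → add biotinylated TK substrate (800 nM final) and ATP (700 μM final) → 2 h RT → stop into HTRF detection mix → read 665/620 nm. Activity normalised to DMSO and pre-stopped blanks.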

human TYRO3 = target: T2, human TYRO3 (Homo sapiens, UniProt Q06418); test: HTRF KinEASE-TK biochemical potency assay, TYRO3; settings: 1 nM TYRO3, 700 μM ATP, 800 nM TK Substrate-biotin
T2 construct: purchased Invitrogen
T2 sequence (Q06418 41-890): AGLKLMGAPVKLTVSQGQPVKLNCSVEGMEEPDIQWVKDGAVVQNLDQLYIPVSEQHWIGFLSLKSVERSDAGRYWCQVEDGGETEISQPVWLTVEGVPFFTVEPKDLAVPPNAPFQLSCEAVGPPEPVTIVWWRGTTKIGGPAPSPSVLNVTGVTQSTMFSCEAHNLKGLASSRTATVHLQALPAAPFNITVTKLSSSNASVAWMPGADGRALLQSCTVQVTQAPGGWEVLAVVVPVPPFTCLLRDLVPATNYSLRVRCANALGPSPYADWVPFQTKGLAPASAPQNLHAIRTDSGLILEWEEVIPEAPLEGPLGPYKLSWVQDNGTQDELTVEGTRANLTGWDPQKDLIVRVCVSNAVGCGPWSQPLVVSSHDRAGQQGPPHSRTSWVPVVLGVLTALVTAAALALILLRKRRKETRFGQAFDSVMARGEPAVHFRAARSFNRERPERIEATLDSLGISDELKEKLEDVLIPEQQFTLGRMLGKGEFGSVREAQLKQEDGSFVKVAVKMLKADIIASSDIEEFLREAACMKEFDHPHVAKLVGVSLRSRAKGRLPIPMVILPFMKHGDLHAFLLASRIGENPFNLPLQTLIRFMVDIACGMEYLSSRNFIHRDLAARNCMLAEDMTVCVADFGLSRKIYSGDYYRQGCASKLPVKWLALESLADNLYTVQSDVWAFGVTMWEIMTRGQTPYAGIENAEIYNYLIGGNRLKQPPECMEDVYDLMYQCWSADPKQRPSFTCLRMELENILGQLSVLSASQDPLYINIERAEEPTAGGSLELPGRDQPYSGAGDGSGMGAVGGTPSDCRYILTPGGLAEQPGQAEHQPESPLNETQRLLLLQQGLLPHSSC
Method: Purified recombinant human AXL, TYRO3 and MER proteins were purchased from Invitrogen™. 10 nM AXL, 2 nM TYRO3 or MER were incubated with varying concentrations of compounds in 50 mM HEPES, pH 7.4, 10 mM MgCl2, 0.01% BSA, 1 mM DTT and 2% DMSO in a total volume of 20 μl in a 384-well microplate (Corning™ #3640) at RT for 1 h. The AXL, TYRO3 and MER enzymatic reaction was initiated by transferring 10 μl of enzyme and compound mixture into 10 μl of 1.6 μM TK Substrate-biotin (HTRF® KinEASE-TK kit, Cisbio) and 1400 μM ATP pre-incubated in 50 mM HEPES, pH 7.4, 10 mM MgCl2, 0.01% BSA, 1 mM DTT in a 384-well microplate (Corning™ #3640) at RT, giving the final reaction conditions: 5 nM AXL, 1 nM TYRO3 or MER, 800 nM TK Substrate-biotin and 700 μM ATP in 50 mM HEPES, pH 7.4, 10 mM MgCl2, 0.01% BSA, 1 mM DTT and 1% DMSO with varying concentrations of compounds. Following 2 h incubation at RT, the AXL, TYRO3 and MER enzymatic reaction was stopped by transfer of 10 μl of reaction into 10 μl of detection mix (400 nM Streptavidin-XL665, 200-fold dilution TK Antibody-Cryptate and detection buffer, HTRF® KinEASE-TK kit, Cisbio) in a white 384-well microplate (Perkin Elmer, OptiPlate 384). After 1 h incubation at RT, the plate was put into a plate reader (Evision) to read at 665/620 nm (acceptor/donor) for HTRF. The value of the DMSO blank (MIN inhibition=100% activity) was used as a negative control. The positive control was established by adding 5 μl of enzyme and DMSO mixture into 10 μl of detection mix followed by addition of 5 μl of TK Substrate-biotin and ATP mixture (MAX inhibition=0% activity). To calculate the percent activity, Equation 1 was used. Ratio 665/620 is the value at a given compound concentration: […]

SMILES	IC50 (Axl) [nM]	IC50 (human TYRO3) [nM]
CS(=O)(=O)c1ccc(-c2n[nH]c3ncc(-c4ccc5c(c4)CCN(C4CCCC4)CC5)cc23)cc1 [Example 30, 3-Cyclopentyl-7-(3-(4-(methylsulfonyl)phenyl)-1H-pyrazolo[3,4-b]pyridin-5-yl)-2,3,4,5-tetrahydro-1H-benzo[d]azepine]	< 100	< 100
C[C@H]1CCCN1C1CCc2ccc(-c3cnc4[nH]nc(-c5ccc(C(C)(C)O)c(Cl)c5)c4c3)cc2CC1 (stereo partly drawn) [Example 37, 2-(2-Chloro-4-(5-(7-((S)-2-methylpyrrolidin-1-yl)-6,7,8,9-tetrahydro-5H-benzo[7]annulen-2-yl)-1H-pyrazolo[3,4-b]pyridin-3-yl)phenyl)propan-2-ol]	< 100	100 to 1000
CC(C)S(=O)(=O)c1ccc(-c2n[nH]c3ncc(-c4ccc5c(c4)CC[C@@H](N4CCCC4)CC5)cc23)cc1 [Example 42, (S)-3-(4-(Isopropylsulfonyl)phenyl)-5-(7-(pyrrolidin-1-yl)-6,7,8,9-tetrahydro-5H-benzo[7]annulen-2-yl)-1H-pyrazolo[3,4-b]pyridine]	< 100	< 100
C[C@H]1CCCN1C1CCc2ccc(-c3cnc4[nH]nc(-c5ccc(S(C)(=O)=O)cc5)c4c3)cc2CC1 (stereo partly drawn) [Example 36, 5-(7-((S)-2-Methylpyrrolidin-1-yl)-6,7,8,9-tetrahydro-5H-benzo[7]annulen-2-yl)-3-(4-(methylsulfonyl)phenyl)-1H-pyrazolo[3,4-b]pyridine]	< 100	< 100
CC(C)(O)c1ccc(-c2n[nH]c3ncc(-c4ccc5c(c4)CCN(C4CCCC4)CC5)cc23)cc1Cl [Example 12, 2-{2-Chloro-4-[5-(3-cyclopentyl-2,3,4,5-tetrahydro-1H-3-benzazepin-7-yl)-1H-pyrazolo[3,4-b]pyridin-3-yl]phenyl}propan-2-ol]	< 100	> 1000
CC(C)(O)c1ccc(-c2n[nH]c3ncc(-c4ccc5c(c4)CCN(C4CCCC4)CC5)cc23)c(F)c1 [Example 17, 2-{4-[5-(3-Cyclopentyl-2,3,4,5-tetrahydro-1H-3-benzazepin-7-yl)-1H-pyrazolo[3,4-b]pyridin-3-yl]-3-fluorophenyl}propan-2-ol]	< 100	100 to 1000
O=S(=O)(c1ccc(-c2n[nH]c3ncc(-c4ccc5c(c4)CCN(CC4CCOC4)CC5)cc23)cc1)C1CC1 (stereo not shown) [Example 27, 7-{3-[4-(Cyclopropanesulfonyl)phenyl]-1H-pyrazolo[3,4-b]pyridin-5-yl}-3-[(oxolan-3-yl)methyl]-2,3,4,5-tetrahydro-1H-3-benzazepine]	< 100	> 1000
O=C1OCCN1c1ccc(-c2n[nH]c3ncc(-c4ccc5c(c4)CC[C@@H](N4C6COCC4C6)CC5)cc23)cc1 [Example 121, 3-(4-{5-[(7S)-7-{3-oxa-6-azabicyclo[3.1.1]heptan-6-yl}-6,7,8,9-tetrahydro-5H-benzo[7]annulen-2-yl]-2H-pyrazolo[3,4-b]pyridin-3-yl}phenyl)-1,3-oxazolidin-2-one]	< 100	100 to 1000
CC(C)(O)c1ccc(-c2n[nH]c3ncc(-c4cc5c(cn4)CCC(N4CCCC4)CC5)cc23)cc1Cl (stereo not shown) [Example 59, 2-(2-Chloro-4-{5-[7-(pyrrolidin-1-yl)-5H,6H,7H,8H,9H-cyclohepta[c]pyridin-3-yl]-1H-pyrazolo[3,4-b]pyridin-3-yl}phenyl)propan-2-ol]	< 100	< 100

Next, values leading:

IC50 (Axl) [nM]	IC50 (human TYRO3) [nM]	SMILES
< 100	100 to 1000	C[C@@H]1CCCN1C1(C)CCc2ccc(-c3cnc4[nH]nc(-c5ccc(N6CCOCC6)cc5)c4c3)cc2CC1 (stereo partly drawn) [Example 107, 4-[4-(5-{7-Methyl-7-[(2R)-2-methylpyrrolidin-1-yl]-6,7,8,9-tetrahydro-5H-benzo[7]annulen-2-yl}-1H-pyrazolo[3,4-b]pyridin-3-yl)phenyl]morpholine]
< 100	< 100	C[C@@H]1CCCN1C1(C)CCc2ccc(-c3cnc4[nH]nc(-c5ccc(C(N)=O)c(F)c5)c4c3)cc2CC1 (stereo partly drawn) [Example 52, 2-Fluoro-4-(5-(7-methyl-7-((R)-2-methylpyrrolidin-1-yl)-6,7,8,9-tetrahydro-5H-benzo[7]annulen-2-yl)-1H-pyrazolo[3,4-b]pyridin-3-yl)benzamide]
< 100	> 1000	C[C@@H]1CCCN1C1(C)CCc2ccc(-c3cnc4[nH]nc(-c5ccc(C(=O)N[C@H]6CCOC6)cc5)c4c3)cc2CC1 (stereo partly drawn) [Example 117, 4-(5-{7-Methyl-7-[(2R)-2-methylpyrrolidin-1-yl]-6,7,8,9-tetrahydro-5H-benzo[7]annulen-2-yl}-1H-pyrazolo[3,4-b]pyridin-3-yl)-N-[(3S)-oxolan-3-yl]benzamide]
< 100	100 to 1000	C[C@@H]1CCCN1C1(C)CCc2ccc(-c3cnc4[nH]nc(-c5ccc(S(=O)(=O)C6CCCC6)cc5)c4c3)cc2CC1 (stereo partly drawn) [Example 45, 3-(4-(Cyclopentylsulfonyl)phenyl)-5-(7-methyl-7-((R)-2-methylpyrrolidin-1-yl)-6,7,8,9-tetrahydro-5H-benzo[7]annulen-2-yl)-1H-pyrazolo[3,4-b]pyridine]
< 100	100 to 1000	CC1(N2CCC[C@H]2CO)CCc2ccc(-c3cnc4[nH]nc(-c5ccc(S(=O)(=O)C6CC6)cc5)c4c3)cc2CC1 (stereo partly drawn) [Example 4, [(2S)-1-(2-{3-[4-(Cyclopropanesulfonyl)phenyl]-1H-pyrazolo[3,4-b]pyridin-5-yl}-7-methyl-6,7,8,9-tetrahydro-5H-benzo[7]annulen-7-yl)pyrrolidin-2-yl]methanol]
